Read-outs that look alike come from different tables or passages of the source.
Assays:
CLL cells = experiment: In vitro stroma-induced CLL proliferation model (BrdU incorporation); type: cell-based, human; conditions: BTK-mutated (C481S) CLL cells, FIG. 3C, untreated 31%
CML = conditions: cited from earlier work

Compound: CC[C@H](Nc1ncnc2[nH]cnc12)c1nc2cccc(F)c2c(=O)n1-c1ccccc1 [GS-1101]
- proliferation (CLL cells): 14%

Compound: Cc1cccc(Nc2nc(N[C@@H]3CCCC[C@@H]3N)ncc2C(N)=O)c1 [PRT060318]
- proliferation (in words) (CLL cells): complete inhibition of proliferation

Compound: CCS(=O)(=O)N1CCN(c2ccc(Nc3ncc(C(N)=O)c(NC4CC4)n3)cc2)CC1 [PRT062070]
- proliferation (in words) (CLL cells): complete inhibition of proliferation

Compound: Cc1ccc(NC(=O)c2ccc(CN3CCN(C)CC3)cc2)cc1Nc1nccc(-c2cccnc2)n1 [imatinib]
- patients who relapse (CML; advanced CML): 66%
- patients who relapse (CML; chronic CML, within the first few years): 5%

Compound: C[C@@H]1CCN(C(=O)CC#N)C[C@@H]1N(C)c1ncnc2[nH]ccc12 [tofacitinib]
- proliferation (CLL cells): 21%

Source: US10954567B2, “Mutations associated with resistance to inhibitors of Bruton's Tyrosine Kinase (BTK)” (Pharmacyclics LLC, priority 2012, dated 2021)
